Reference: patent publication US20240158446A1, “CYCLIC COMPOUND HAVING SELECTIVE INHIBITORY ACTION ON KRAS OVER HRAS AND NRAS” (CHUGAI SEIYAKU KABUSHIKI KAISHA, priority 2021, published 2024)

Key:
[1] = molecular target: GDP-bound NRAS wild-type protein (Homo sapiens, UniProt P01111); assay: Binding to NRAS by surface plasmon resonance (SPR), Single Cycle Kinetics; details: SPR, GDP-bound NRAS wild-type protein vs GDP-bound KRAS wild-type protein
[2] = molecular target: GDP-bound HRAS wild-type protein (Homo sapiens, UniProt P01112); assay: Binding to HRAS by surface plasmon resonance (SPR), Single Cycle Kinetics; details: SPR, GDP-bound HRAS wild-type protein vs GDP-bound KRAS wild-type protein
[3] = molecular target: GDP-bound KRAS wild-type protein (Homo sapiens, UniProt P01116); assay: Binding to KRAS by surface plasmon resonance (SPR), Single Cycle Kinetics; details: SPR, Single Cycle Kinetics, GDP-bound KRAS wild-type protein; read-out: KRAS KD
Sequence of GDP-bound KRAS wild-type protein (P01116 whole entry): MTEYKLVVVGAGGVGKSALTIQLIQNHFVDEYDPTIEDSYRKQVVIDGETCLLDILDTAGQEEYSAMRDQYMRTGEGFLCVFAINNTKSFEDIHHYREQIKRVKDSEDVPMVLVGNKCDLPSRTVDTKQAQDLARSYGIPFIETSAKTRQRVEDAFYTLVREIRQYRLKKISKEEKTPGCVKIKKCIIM

Sequence of GDP-bound HRAS wild-type protein (P01112 whole entry): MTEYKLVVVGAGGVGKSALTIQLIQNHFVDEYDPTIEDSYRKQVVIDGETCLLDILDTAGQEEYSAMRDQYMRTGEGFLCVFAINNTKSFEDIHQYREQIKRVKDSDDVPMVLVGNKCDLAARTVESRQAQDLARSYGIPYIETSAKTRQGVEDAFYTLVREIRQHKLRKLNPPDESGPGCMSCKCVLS
Sequence of GDP-bound NRAS wild-type protein (P01111 whole entry): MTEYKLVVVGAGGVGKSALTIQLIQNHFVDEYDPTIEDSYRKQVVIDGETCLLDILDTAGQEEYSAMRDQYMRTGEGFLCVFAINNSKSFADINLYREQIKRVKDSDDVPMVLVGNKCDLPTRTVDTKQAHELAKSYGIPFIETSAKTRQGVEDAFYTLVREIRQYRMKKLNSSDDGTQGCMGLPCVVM

## CCO[C@@H]1C[C@H]2C(=O)NC3(CCC3)C(=O)N(C)[C@@H](C3CCCC3)C(=O)N(C)[C@H](C(=O)N(C)C)CC(=O)N(C)[C@@H](CC)C(=O)N[C@@H]([C@@H](C)CC)C(=O)N(C)[C@@H](C)C(=O)N(C)[C@H]3C/C=C\CCN(C3=O)[C@@H](Cc3ccc(C(F)(F)F)cc3)C(=O)N(C)CC(=O)N[C@@H](CCc3cc(F)c(C(F)(F)F)c(F)c3)C(=O)N2C1 [PP1054]
[1]
  NRAS/KRAS (ratio of KD value for NRAS to KD value for KRAS): A (a compound having 10 or more and less than 20 is denoted as A)
[2]
  HRAS/KRAS (ratio of KD value for HRAS to KD value for KRAS): B (a compound having 3 or more and less than 10 is denoted as B)
[3]
  Kd: 3.9 nM

## CCO[C@@H]1C[C@H]2C(=O)NC3(CCC3)C(=O)N(C)[C@@H](C3CCCC3)C(=O)N(C)[C@H](C(=O)N(C)C)CC(=O)N(C)[C@@H](CC)C(=O)N[C@@H]([C@@H](C)CC)C(=O)N3C[C@H](OCC)C[C@H]3C(=O)N(C)[C@H]3C/C=C\CCN(C3=O)[C@@H](Cc3ccc(C(F)(F)F)cc3)C(=O)N(C)CC(=O)N[C@@H](CCc3cc(F)c(C(F)(F)F)c(F)c3)C(=O)N2C1 [PP1057]
[1]
  NRAS/KRAS (ratio of KD value for NRAS to KD value for KRAS): A (a compound having 10 or more and less than 20 is denoted as A)
[2]
  HRAS/KRAS (ratio of KD value for HRAS to KD value for KRAS): B (a compound having 3 or more and less than 10 is denoted as B)
[3]
  Kd: 0.31 nM

## CCO[C@@H]1C[C@H]2C(=O)NC3(CCC3)C(=O)N(C)[C@@H](C3CCCC3)C(=O)N(C)[C@H](C(=O)N(C)C)CC(=O)N(C)[C@@H](CC)C(=O)N[C@@H]([C@@H](C)CC)C(=O)N3CCSC[C@H]3C(=O)N(C)[C@H]3C/C=C\CCN(C3=O)[C@@H](Cc3ccc(C(F)(F)F)cc3)C(=O)N(C)CC(=O)N[C@@H](CCc3cc(F)c(C(F)(F)F)c(F)c3)C(=O)N2C1 [PP1060]
[1]
  NRAS/KRAS (ratio of KD value for NRAS to KD value for KRAS): A (a compound having 10 or more and less than 20 is denoted as A)
[2]
  HRAS/KRAS (ratio of KD value for HRAS to KD value for KRAS): A (a compound having 10 or more and less than 20 is denoted as A)
[3]
  Kd: 2.6 nM

## CCO[C@@H]1C[C@H]2C(=O)NC3(CCC3)C(=O)N(C)[C@@H](C3CCCC3)C(=O)N(C)[C@H](C(=O)N(C)C)CC(=O)N(C)[C@@H](CC)C(=O)N[C@@H]([C@@H](C)CC)C(=O)N[C@@H](C)C(=O)N(C)[C@H]3C/C=C\CCN(C3=O)[C@@H](Cc3ccc(C(F)(F)F)cc3)C(=O)N(C)CC(=O)N[C@@H](CCc3cc(F)c(C(F)(F)F)c(F)c3)C(=O)N2C1 [PP1065]
[1]
  NRAS/KRAS (ratio of KD value for NRAS to KD value for KRAS): A (a compound having 10 or more and less than 20 is denoted as A)
[2]
  HRAS/KRAS (ratio of KD value for HRAS to KD value for KRAS): B (a compound having 3 or more and less than 10 is denoted as B)
[3]
  Kd: 0.45 nM

## CC[C@H](C)[C@@H]1NC(=O)[C@H](CC(C)C)N(C)C(=O)C[C@@H](C(=O)N2CCOCC2)N(C)C(=O)[C@H](C2CCCC2)N(C)C(=O)C2(CCC2)NC(=O)[C@@H]2[C@@H](OC)CCN2C(=O)[C@H](CCc2cc(F)c(C(F)(F)F)c(F)c2)NC(=O)CN(C)C(=O)[C@H](Cc2ccc(C(F)(F)F)cc2)N2CCCCC[C@@H](C2=O)N(C)C(=O)CN(C)C1=O [PP1067]
[1]
  NRAS/KRAS (ratio of KD value for NRAS to KD value for KRAS): B (a compound having 3 or more and less than 10 is denoted as B)
[2]
  HRAS/KRAS (ratio of KD value for HRAS to KD value for KRAS): B (a compound having 3 or more and less than 10 is denoted as B)
[3]
  Kd: 2.9 nM

## CCO[C@H]1CCN2C(=O)[C@H](CCc3cc(F)c(C(F)(F)F)c(F)c3)NC(=O)CN(C)C(=O)[C@H](Cc3ccc(C(F)(F)F)cc3)N3CCCCC[C@@H](C3=O)N(C)C(=O)CN(C)C(=O)[C@H]([C@@H](C)CC)NC(=O)[C@H](CC(C)C)N(C)C(=O)C[C@@H](C(=O)N3CCOCC3)N(C)C(=O)[C@H](C3CCCC3)N(C)C(=O)C3(CCC3)NC(=O)[C@H]12 [PP1068]
[1]
  NRAS/KRAS (ratio of KD value for NRAS to KD value for KRAS): A (a compound having 10 or more and less than 20 is denoted as A)
[2]
  HRAS/KRAS (ratio of KD value for HRAS to KD value for KRAS): B (a compound having 3 or more and less than 10 is denoted as B)
[3]
  Kd: 1.1 nM

## CCCO[C@H]1CCN2C(=O)[C@H](CCc3cc(F)c(C(F)(F)F)c(F)c3)NC(=O)CN(C)C(=O)[C@H](Cc3ccc(C(F)(F)F)cc3)N3CCCCC[C@@H](C3=O)N(C)C(=O)CN(C)C(=O)[C@H]([C@@H](C)CC)NC(=O)[C@H](CC(C)C)N(C)C(=O)C[C@@H](C(=O)N3CCOCC3)N(C)C(=O)[C@H](C3CCCC3)N(C)C(=O)C3(CCC3)NC(=O)[C@H]12 [PP1069]
[1]
  NRAS/KRAS (ratio of KD value for NRAS to KD value for KRAS): A (a compound having 10 or more and less than 20 is denoted as A)
[2]
  HRAS/KRAS (ratio of KD value for HRAS to KD value for KRAS): B (a compound having 3 or more and less than 10 is denoted as B)
[3]
  Kd: 2.5 nM

## CCCCO[C@H]1CCN2C(=O)[C@H](CCc3cc(F)c(C(F)(F)F)c(F)c3)NC(=O)CN(C)C(=O)[C@H](Cc3ccc(C(F)(F)F)cc3)N3CCCC[C@@H](C3=O)N(C)C(=O)CN(C)C(=O)[C@H]([C@@H](C)CC)NC(=O)[C@H](CC(C)C)N(C)C(=O)C[C@@H](C(=O)N3CCOCC3)N(C)C(=O)[C@H](C3CCCC3)N(C)C(=O)C3(CCC3)NC(=O)[C@H]12 [PP1071]
[1]
  NRAS/KRAS (ratio of KD value for NRAS to KD value for KRAS): B (a compound having 3 or more and less than 10 is denoted as B)
[2]
  HRAS/KRAS (ratio of KD value for HRAS to KD value for KRAS): B (a compound having 3 or more and less than 10 is denoted as B)
[3]
  Kd: 0.1 nM

## CC[C@H](C)[C@@H]1NC(=O)[C@H](CC(C)C)N(C)C(=O)C[C@@H](C(=O)N2CCOCC2)N(C)C(=O)[C@H](C2CCCC2)N(C)C(=O)C2(CCC2)NC(=O)[C@@H]2[C@@H](OCC3CC3)CCN2C(=O)[C@H](CCc2cc(F)c(C(F)(F)F)c(F)c2)NC(=O)CN(C)C(=O)[C@H](Cc2ccc(C(F)(F)F)cc2)N2CCCC[C@@H](C2=O)N(C)C(=O)CN(C)C1=O [PP1072]
[1]
  NRAS/KRAS (ratio of KD value for NRAS to KD value for KRAS): B (a compound having 3 or more and less than 10 is denoted as B)
[2]
  HRAS/KRAS (ratio of KD value for HRAS to KD value for KRAS): B (a compound having 3 or more and less than 10 is denoted as B)
[3]
  Kd: 0.063 nM

## CC[C@H](C)[C@@H]1NC(=O)[C@H](CC(C)C)N(C)C(=O)C[C@@H](C(=O)N2CCOCC2)N(C)C(=O)[C@H](C2CCCC2)N(C)C(=O)C2(CCC2)NC(=O)[C@@H]2[C@@H](OCC3CCCC3)CCN2C(=O)[C@H](CCc2cc(F)c(C(F)(F)F)c(F)c2)NC(=O)CN(C)C(=O)[C@H](Cc2ccc(C(F)(F)F)cc2)N2CCCC[C@@H](C2=O)N(C)C(=O)CN(C)C1=O [PP1073]
[1]
  NRAS/KRAS (ratio of KD value for NRAS to KD value for KRAS): B (a compound having 3 or more and less than 10 is denoted as B)
[2]
  HRAS/KRAS (ratio of KD value for HRAS to KD value for KRAS): B (a compound having 3 or more and less than 10 is denoted as B)
[3]
  Kd: 0.36 nM

## CC[C@H](C)[C@@H]1NC(=O)[C@H](CC(C)C)N(C)C(=O)C[C@@H](C(=O)N2CCOCC2)N(C)C(=O)[C@H](C2CCCC2)N(C)C(=O)C2(CCC2)NC(=O)[C@@H]2[C@@H](OC)CCN2C(=O)[C@H](CCc2cc(F)c(C(F)(F)F)c(F)c2)NC(=O)CN(C)C(=O)[C@H](Cc2ccc(C(F)(F)F)cc2)N2CCCC[C@@H](C2=O)N(C)C(=O)CN(C)C1=O [PP1075]
[1]
  NRAS/KRAS (ratio of KD value for NRAS to KD value for KRAS): B (a compound having 3 or more and less than 10 is denoted as B)
[2]
  HRAS/KRAS (ratio of KD value for HRAS to KD value for KRAS): B (a compound having 3 or more and less than 10 is denoted as B)
[3]
  Kd: 0.066 nM

## CCO[C@H]1CCN2C(=O)[C@H](CCc3cc(F)c(C(F)(F)F)c(F)c3)NC(=O)CN(C)C(=O)[C@H](Cc3ccc(C(F)(F)F)cc3)N3CCCC[C@@H](C3=O)N(C)C(=O)CN(C)C(=O)[C@H]([C@@H](C)CC)NC(=O)[C@H](CC(C)C)N(C)C(=O)C[C@@H](C(=O)N3CCOCC3)N(C)C(=O)[C@H](C3CCCC3)N(C)C(=O)C3(CCC3)NC(=O)[C@H]12 [PP1076]
[1]
  NRAS/KRAS (ratio of KD value for NRAS to KD value for KRAS): B (a compound having 3 or more and less than 10 is denoted as B)
[2]
  HRAS/KRAS (ratio of KD value for HRAS to KD value for KRAS): B (a compound having 3 or more and less than 10 is denoted as B)
[3]
  Kd: 0.068 nM

## CCCO[C@H]1CCN2C(=O)[C@H](CCc3cc(F)c(C(F)(F)F)c(F)c3)NC(=O)CN(C)C(=O)[C@H](Cc3ccc(C(F)(F)F)cc3)N3CCCC[C@@H](C3=O)N(C)C(=O)CN(C)C(=O)[C@H]([C@@H](C)CC)NC(=O)[C@H](CC(C)C)N(C)C(=O)C[C@@H](C(=O)N3CCOCC3)N(C)C(=O)[C@H](C3CCCC3)N(C)C(=O)C3(CCC3)NC(=O)[C@H]12 [PP1077]
[1]
  NRAS/KRAS (ratio of KD value for NRAS to KD value for KRAS): B (a compound having 3 or more and less than 10 is denoted as B)
[2]
  HRAS/KRAS (ratio of KD value for HRAS to KD value for KRAS): B (a compound having 3 or more and less than 10 is denoted as B)
[3]
  Kd: 0.085 nM

## CCO[C@@H]1CCN2C(=O)[C@H](CCc3cc(F)c(C(F)(F)F)c(F)c3)NC(=O)CN(C)C(=O)[C@H](Cc3ccc(C(F)(F)F)cc3)N3CCCC[C@@H](C3=O)N(C)C(=O)CN(C)C(=O)[C@H]([C@@H](C)CC)NC(=O)[C@H](CC(C)C)N(C)C(=O)C[C@@H](C(=O)N3CCOCC3)N(C)C(=O)[C@H](C3CCCC3)N(C)C(=O)C3(CCC3)NC(=O)[C@H]12 [PP1079]
[1]
  NRAS/KRAS (ratio of KD value for NRAS to KD value for KRAS): B (a compound having 3 or more and less than 10 is denoted as B)
[2]
  HRAS/KRAS (ratio of KD value for HRAS to KD value for KRAS): B (a compound having 3 or more and less than 10 is denoted as B)
[3]
  Kd: 0.23 nM
